Results from patent US9994812B2, “Systems and method for engineering muscle tissue” (UNIVERSITY OF WASHINGTON THROUGH ITS CENTER FOR …, priority 2012, dated 2018).

Columns and labels:
Assay type in all cases: cell-based, human
[1] = test system: cardiomyocytes derived from healthy, and diseased hiPSC cells; assay: Drug testing on ANP, action potential profile; settings: addition of Verapamil
[2] = test system: hESC-derived cardiomyocyte cultures; assay: Action potential time course traces with 1 Hz pacing on the nanotextured substrate; settings: 0, 20 and 40 μM, 4 seconds
Procedure: Representative action potential time course traces for 4 seconds in the presence of 1 Hz pacing in the presence of carboxelone, a GAP junction inhibitor at 0 μM (FIG. 19A), 20 μM (FIG. 19B), and 40 μM (FIG. 19C) are shown.

[3] = test system: paced hiPSC-derived cardiomyocytes monolayer; assay: Optical mapping of conduction velocity vectors and spatial activation map; settings: 40 μM vs 0 μM
[4] = test system: hES-CM monolayers; assay: Action potential profile of monolayers on the ANP polymer substrate
[5] = test system: hESC-derived cardiomyocytes (hESC-CMs); assay: High throughput cardiotoxicity profiling, live/dead imaging (Calcein-AM / EtBr); settings: doxorubicin, 24 hrs
Procedure: FIGS. 16A-16B show high throughput cardiotoxicity profiling. To test the capacity of the ANP and system to identify cardiotoxic drugs, hESC-derived cardiomyocytes (hESC-CMs) were treated with doxorubicin for 24 hrs and then imaged using the high-throughput Applied Precision DeltaVision system.

[6] = test system: control IMR90 cells (IMR90 hiPSC-derived cardiomyocytes); assay: Sarcomere organization on nanotextured platforms, control cells; settings: addition of isoproterenol
Source text: (§1) FIG. 34A-34D show nanotextured platforms facilitate maturation of hiPSC-derived cardiomyocytes allowing them to be used as effective disease models for drug testing against cardiomyopathies, and as in vitro cardiac disease models. […] Since nanotextures allow physiological organization of sarcomeres, it serves as a disease model to test the effect of a drug on a diseased cardiomyocyte.

[7] = test system: MHY7 mutated iPSC-derived CMs; assay: Sarcomere organization on nanotextured platforms, disease model; settings: addition of isoproterenol
Source text: as §1

Q: Which AP profile [1] does the source give for `COc1ccc(CCN(C)CCCC(C#N)(c2ccc(OC)c(OC)c2)C(C)C)cc1OC` (stereo not drawn) [Verapamil] here?
A: causes distortions in AP profile

Q: How did the “effect on action potential time course traces” value [2] turn out when `CC1(C)[C@@H](OC(=O)CCC(=O)O)CC[C@]2(C)[C@H]3C(=O)C=C4[C@@H]5C[C@@](C)(C(=O)O)CC[C@]5(C)CC[C@@]4(C)[C@]3(C)CC[C@@H]12` [carboxelone] was run?
A: dose dependent

Q: What about the conduction velocity vectors [3] of the same compound?
A: decrease in conduction across the tissue

Q: And the “spatial activation map of electrical activity” value [3]?
A: decrease in electrical activity of the monolayer

Q: With `COc1cc(N)c(Cl)cc1C(=O)NC1CCN(CCCOc2ccc(F)cc2)CC1OC` (stereo not drawn) [cisapride] as the compound, how does the AP profile ([4]; K+ channel inhibitor on hES-CM monolayers) read?
A: distortions in AP profile

Q: What about the “prolongation of action potential” value ([4]; addition of cisapride for 2 minutes) of the same compound?
A: prolongation of action potential in a significant manner

Q: `COc1cccc2c1C(=O)c1c(O)c3c(c(O)c1C2=O)C[C@@](O)(C(=O)CO)C[C@@H]3O[C@H]1C[C@H](N)[C@H](O)[C@H](C)O1` [doxorubicin] was tested. Which “percentage of dead hESC-CMs” value [5] did it give?
A: statistically significant increase

Q: Which sarcomeric organization [6] does the source give for `CC(C)NCC(O)c1ccc(O)c(O)c1` (stereo not drawn) [isoproterenol] here?
A: does not result in loss of sarcmeric organization

Q: What about the sarcomere organization [7] of the same compound?
A: results in loss of sarcomere organization
